Laboratory results taken from patent publication US20260159536A1, “AKR1C3-ACTIVATED DNA ALKYLATING AGENT, AND MEDICAL APPLICATION THEREOF” (ASCENTAWITS PHARMACEUTICALS, LTD., priority 2021, published 2026).

Key:
in vitro = settings: for % Remaining: with NADPH and AST-3021
Description: (1) Compound A for test, progesterone positive control, and 100 mM stock solutions of AST-3021 inhibitor were prepared and stored in the freezer (−10° C. to −30° C.).
1) Negative control group: at different time points (0 and 60 min), 30 μL/well of hepatocyte cytosol suspension containing 7.5 μM of sample for test was distributed in a 96-well plate. Three replicate wells were prepared in parallel.
2) Positive control group: at different time points (0, 5, 15, 30, 45 and 60 min), 30 μL/well of hepatocyte cytosol suspension containing 7.5 μM of the positive control was distributed in a 96-well plate. Three replicate wells were prepared in parallel.
3) Normal reaction group: at different time points (0, 5, 15, 30, 45 and 60 min), 30 μL/well of hepatocyte cytosol suspension containing 7.5 μM of sample for test was distributed in a 96-well plate. Three replicate wells were prepared in parallel.
4) Inhibition reaction group: at different time points (0, 5, 15, 30, 45 and 60 min), 30 μL/well of hepatocyte cytosol suspension containing […] of sample for test and 4.5 μM of the inhibitor was distributed in a 96-well plate. Three replicate wells were prepared in parallel.
6) 0 min samples: after 150 μL/well of acetonitrile containing the internal standard was added, then 15 μL/well of pre-heated NADPH working solution was added to the samples of normal reaction group, inhibition reaction group and positive control group, and 15 μL/well of pre-heated potassium phosphate buffer was added to the samples of negative control group.
7) Other samples (5, 15, 30, 45 and 60 min): for normal reaction group, inhibition reaction group and positive control group, 15 μL/well of pre-heated NADPH working solution was added to start the reaction; for negative control group, 15 μL/well of pre-heated potassium phosphate buffer was added. The reaction plates were then continued to incubate in a 37° C. water bath and the reactions were stopped by the addition of 150 μL/well of stop solution at the corresponding time points (5, 15, 30, 45 and 60 min).
The concentration of analyte in each sample was expressed as a peak area ratio (peak area analyte/peak areainternal standard), then the peak area ratio at 0 min was used as a reference to calculate the % Remaining at each time point of the incubation, and the ln logarithmic value of the % Remaining was linearly fitted to the incubation time and the half-life was calculated according to the following formula.
In the absence of AST-3021, 5 μM of progesterone was co-incubated with 2 mM of NADPH and 1 mg/mL of hepatocyte cytosol for 0-60 min as a positive control.

[1] = Chiral stability under long-term and accelerated storage conditions; type: physicochemical
Description: Isomer stability under long-term and accelerated conditions was studied.
Compound A and isomers A-P1 and A-P2 were investigated for traits and isomeric stability at −20±5° C., 5° C.±3° C., 25° C.±2° C. (60%±5% RH) and 40° C.±2° C.

[2] = 25° C. ± 2° C./60% ± 5% RH, 6 months
[3] = 40° C. ± 2° C./75% ± 5% RH, 6 months

SMILES: O=[N+]([O-])c1ccc(C(OP(=O)(N2CC2)N2CC2)C(F)(F)F)cc1Oc1ccc(-c2ccc(F)cc2)c(F)c1 (racemic) [Compound A]
- average % Remaining (in vitro; monkey, 2 mM NADPH, no AST-3021 (normal reaction / positive control group), 5 μM, 60 min): 73.28%
- Metabolic parameter k (in vitro; monkey, negative control group (no NADPH, no AST-3021), 5 μM): 0.0040
- average % Remaining (in vitro; monkey, negative control group (no NADPH, no AST-3021), 5 μM, 0 min): 100.00%
- average % Remaining (in vitro; monkey, negative control group (no NADPH, no AST-3021), 5 μM, 60 min): 78.57%
- average % Remaining (in vitro; mouse, 60 min, no NADPH, no AST-3021): 83.01%
- average % Remaining (in vitro; mouse, 60 min, with NADPH, no AST-3021): 88.89%
- % Remaining (in vitro; mouse): 74.94%
- Metabolic parameter k (in vitro; mouse, 2 mM NADPH + 3 μM AST-3021 (inhibition reaction group), 5 μM): 0.0041
- average % Remaining (in vitro; mouse, 2 mM NADPH + 3 μM AST-3021 (inhibition reaction group), 5 μM, 0 min): 100.00%
- average % Remaining (in vitro; mouse, 2 mM NADPH + 3 μM AST-3021 (inhibition reaction group), 5 μM, 5 min): 90.76%
- average % Remaining (in vitro; mouse, 2 mM NADPH + 3 μM AST-3021 (inhibition reaction group), 5 μM, 15 min): 87.29%
- average % Remaining (in vitro; mouse, 2 mM NADPH + 3 μM AST-3021 (inhibition reaction group), 5 μM, 30 min): 85.00%
- average % Remaining (in vitro; mouse, 2 mM NADPH + 3 μM AST-3021 (inhibition reaction group), 5 μM, 45 min): 82.33%
- average % Remaining (in vitro; mouse, 2 mM NADPH + 3 μM AST-3021 (inhibition reaction group), 5 μM, 60 min): 74.94%
- Metabolic parameter k (in vitro; mouse, 2 mM NADPH, no AST-3021 (normal reaction / positive control group), 5 μM): 0.0014
- average % Remaining (in vitro; mouse, 2 mM NADPH, no AST-3021 (normal reaction / positive control group), 5 μM, 0 min): 100.00%
- average % Remaining (in vitro; mouse, 2 mM NADPH, no AST-3021 (normal reaction / positive control group), 5 μM, 5 min): 99.18%
- average % Remaining (in vitro; mouse, 2 mM NADPH, no AST-3021 (normal reaction / positive control group), 5 μM, 15 min): 109.17%
- average % Remaining (in vitro; mouse, 2 mM NADPH, no AST-3021 (normal reaction / positive control group), 5 μM, 30 min): 95.86%
- average % Remaining (in vitro; mouse, 2 mM NADPH, no AST-3021 (normal reaction / positive control group), 5 μM, 45 min): 95.38%
- average % Remaining (in vitro; mouse, 2 mM NADPH, no AST-3021 (normal reaction / positive control group), 5 μM, 60 min): 88.89%
- Metabolic parameter k (in vitro; mouse, negative control group (no NADPH, no AST-3021), 5 μM): 0.0031
- average % Remaining (in vitro; mouse, negative control group (no NADPH, no AST-3021), 5 μM, 0 min): 100.00%
- average % Remaining (in vitro; mouse, negative control group (no NADPH, no AST-3021), 5 μM, 60 min): 83.01%
- average % Remaining (in vitro; rat, 60 min, no NADPH, no AST-3021): 68.42%
- average % Remaining (in vitro; rat, 60 min, with NADPH, no AST-3021): 71.72%
- % Remaining (in vitro; rat): 63.81%
- Metabolic parameter k (in vitro; rat, 2 mM NADPH + 3 μM AST-3021 (inhibition reaction group), 5 μM): 0.0068
- average % Remaining (in vitro; rat, 2 mM NADPH + 3 μM AST-3021 (inhibition reaction group), 5 μM, 0 min): 100.00%
- average % Remaining (in vitro; rat, 2 mM NADPH + 3 μM AST-3021 (inhibition reaction group), 5 μM, 5 min): 88.10%
- average % Remaining (in vitro; rat, 2 mM NADPH + 3 μM AST-3021 (inhibition reaction group), 5 μM, 15 min): 86.23%
- average % Remaining (in vitro; rat, 2 mM NADPH + 3 μM AST-3021 (inhibition reaction group), 5 μM, 30 min): 83.84%
- average % Remaining (in vitro; rat, 2 mM NADPH + 3 μM AST-3021 (inhibition reaction group), 5 μM, 45 min): 78.06%
- average % Remaining (in vitro; rat, 2 mM NADPH + 3 μM AST-3021 (inhibition reaction group), 5 μM, 60 min): 63.81%
- Metabolic parameter k (in vitro; rat, 2 mM NADPH, no AST-3021 (normal reaction / positive control group), 5 μM): 0.0053
- average % Remaining (in vitro; rat, 2 mM NADPH, no AST-3021 (normal reaction / positive control group), 5 μM, 0 min): 100.00%
- average % Remaining (in vitro; rat, 2 mM NADPH, no AST-3021 (normal reaction / positive control group), 5 μM, 5 min): 90.07%
- average % Remaining (in vitro; rat, 2 mM NADPH, no AST-3021 (normal reaction / positive control group), 5 μM, 15 min): 90.26%
- average % Remaining (in vitro; rat, 2 mM NADPH, no AST-3021 (normal reaction / positive control group), 5 μM, 30 min): 84.80%
- average % Remaining (in vitro; rat, 2 mM NADPH, no AST-3021 (normal reaction / positive control group), 5 μM, 45 min): 81.99%
- average % Remaining (in vitro; rat, 2 mM NADPH, no AST-3021 (normal reaction / positive control group), 5 μM, 60 min): 71.72%
- Metabolic parameter k (in vitro; rat, negative control group (no NADPH, no AST-3021), 5 μM): 0.0063
- average % Remaining (in vitro; rat, negative control group (no NADPH, no AST-3021), 5 μM, 0 min): 100.00%
- average % Remaining (in vitro; rat, negative control group (no NADPH, no AST-3021), 5 μM, 60 min): 68.42%
- Isomer peak A-P1 ([1]; 0 month): 49.8%
- Isomer peak A-P2 ([1]; 0 month): 50.2%
- Isomer peak A-P1 ([1]; 5° C. ± 3° C., 6 months): 49.9%
- Isomer peak A-P2 ([1]; 5° C. ± 3° C., 6 months): 50.1%
- Isomer transformation ([1]; 5° C. ± 3° C., 6 months): 0.1%
- properties and chirality after storage ([1]; 5° C., 25° C./60% RH, 40° C./75% RH, 6 months): essentially unchanged
- Isomer peak A-P1 [1, 2]: 49.9%
- Isomer peak A-P2 [1, 2]: 50.1%
- Isomer transformation [1, 2]: 0.1%
- Isomer peak A-P1 [1, 3]: 49.9%
- Isomer peak A-P2 [1, 3]: 50.1%
- Isomer transformation [1, 3]: 0.1%
